Assay results as given in patent US20160145257A1, “SUBSTITUTED XANTHINES AND METHODS OF USE THEREOF” (Hydra Biosciences, Inc., priority 2013, published 2016).

target: T1, hTRPC5 (Homo sapiens, UniProt Q9UL62); test: Whole-cell patch clamp, block of LaCl3-activated TRPC5 inward current; assay type: cell-based; conditions: TRPC5-expressing HEK293 TREx cells, 80 μM LaCl3, inward current, IC50 estimated from 5 μM and 500 nM, read-out: hTRPC5 Patch La3+ Inwd (nM) (All Batches)
T1 construct: expressed in transfected cells; host or cells: HEK293 TREx cells with inducible TRPC5 expression
T1 sequence (Q9UL62 1-973): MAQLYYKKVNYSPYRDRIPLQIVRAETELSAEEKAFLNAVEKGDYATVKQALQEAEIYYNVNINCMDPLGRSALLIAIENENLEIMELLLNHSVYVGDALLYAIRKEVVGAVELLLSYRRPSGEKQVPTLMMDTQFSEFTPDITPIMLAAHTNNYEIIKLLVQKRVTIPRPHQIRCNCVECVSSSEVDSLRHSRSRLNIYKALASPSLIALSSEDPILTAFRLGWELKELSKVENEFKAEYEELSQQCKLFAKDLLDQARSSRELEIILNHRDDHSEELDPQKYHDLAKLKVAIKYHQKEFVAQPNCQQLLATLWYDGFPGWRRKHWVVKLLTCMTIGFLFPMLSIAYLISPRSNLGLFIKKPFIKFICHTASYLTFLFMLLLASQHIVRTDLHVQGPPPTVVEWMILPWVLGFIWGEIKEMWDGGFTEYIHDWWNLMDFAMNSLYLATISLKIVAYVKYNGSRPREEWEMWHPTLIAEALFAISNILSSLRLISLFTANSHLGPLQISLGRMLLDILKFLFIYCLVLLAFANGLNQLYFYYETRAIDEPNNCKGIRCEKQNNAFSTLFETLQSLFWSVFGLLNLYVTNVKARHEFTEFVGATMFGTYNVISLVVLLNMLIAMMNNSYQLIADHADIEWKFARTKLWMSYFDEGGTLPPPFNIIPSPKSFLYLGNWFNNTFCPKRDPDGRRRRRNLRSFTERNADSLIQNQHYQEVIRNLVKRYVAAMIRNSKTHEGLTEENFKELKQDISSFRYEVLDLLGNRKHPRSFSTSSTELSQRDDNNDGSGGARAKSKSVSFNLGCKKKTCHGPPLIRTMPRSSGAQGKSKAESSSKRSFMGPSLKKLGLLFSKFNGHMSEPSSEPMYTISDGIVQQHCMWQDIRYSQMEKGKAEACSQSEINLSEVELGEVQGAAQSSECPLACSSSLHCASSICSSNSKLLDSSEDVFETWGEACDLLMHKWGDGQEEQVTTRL
Method in brief: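 Whole-cell recordings in induced TRPC5-expressing HEK293 TREx cells, holding −40 mV, 400 ms ramps −120 to +100 mV every 5 s; current activated by 80 μM external LaCl3 and 1,400 nM pipette free Ca2+ (pH 7.2 internal, 7.4 external). Inward block at −80 mV, with LaCl3 present; IC50 estimated from testing at 5 μM and 500 nM.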

Structure (SMILES) | IC50
Cn1c(=O)c2c(nc(Oc3cccc(C#N)c3)n2Cc2cccc(Br)c2)n(C)c1=O [Compound 112, 3-(7-(3-bromobenzyl)-1,3-dimethyl-2,6-dioxo-2,3,6,7-tetrahydro-1H-purin-8-yloxy)benzonitrile] | 2000 to 10000 nM
CCCc1cccc(Oc2nc3c(c(=O)n(C)c(=O)n3C)n2Cc2cccc(Br)c2)c1 [Compound 113, 7-(3-bromobenzyl)-1,3-dimethyl-8-(3-propylphenoxy)-1H-purine-2,6(3H,7H)-dione] | < 100 nM
Cn1c(=O)c2c(nc(Oc3cccc(OC(F)(F)F)c3)n2Cc2cccc(Br)c2)n(C)c1=O [Compound 115, 7-(3-bromobenzyl)-1,3-dimethyl-8-(3-(trifluoromethoxy)phenoxy)-1H-purine-2,6(3H,7H)-dione] | < 100 nM
Cn1c(=O)c2c(nc(Cc3cccc(CO)c3)n2Cc2cccc(Br)c2)n(C)c1=O [Compound 124] | 2000 to 10000 nM
CCOCc1cccc(C(CC)c2nc3c(c(=O)n(C)c(=O)n3C)n2Cc2cccc(Br)c2)c1 (stereo not drawn) [Compound 125, 7-(3-bromobenzyl)-8-(1-(3-(ethoxymethyl)phenyl)propyl)-1,3-dimethyl-1H-purine-2,6(3H,7H)-dione] | 500 to 1000 nM
CCOCc1cccc(Oc2nc3c(c(=O)n(C)c(=O)n3C)n2Cc2cccc(Br)c2)c1 [Compound 126, 7-(3-bromobenzyl)-8-(3-(ethoxymethyl)phenoxy)-1,3-dimethyl-1H-purine-2,6(3H,7H)-dione] | 100 to 500 nM
CN(C)C(=O)c1cccc(Oc2nc3c(c(=O)n(C)c(=O)n3C)n2Cc2cccc(Br)c2)c1 [Compound 127] | 2000 to 10000 nM
CCc1coc(CSc2nc3c(c(=O)n(C)c(=O)n3C)n2Cc2cccc(OC)c2)n1 [Compound 130, 8-((4-ethyloxazol-2-yl)methylthio)-7-(3-methoxybenzyl)-1,3-dimethyl-1H-purine-2,6(3H,7H)-dione] | 500 to 1000 nM
CCc1coc(CSc2nc3c(c(=O)n(C)c(=O)n3C)n2Cc2ccc(OC)cc2)n1 [Compound 131, 8-((4-ethyloxazol-2-yl)methylthio)-7-(4-methoxybenzyl)-1,3-dimethyl-1H-purine-2,6(3H,7H)-dione] | 500 to 1000 nM
CCc1coc(CSc2nc3c(c(=O)n(C)c(=O)n3C)n2Cc2cccc(C)c2)n1 [Compound 132, 8-((4-ethyloxazol-2-yl)methylthio)-1,3-dimethyl-7-(3-methylbenzyl)-1H-purine-2,6(3H,7H)-dione] | 100 to 500 nM
CCc1coc(CSc2nc3c(c(=O)n(C)c(=O)n3C)n2Cc2ccc(C)cc2)n1 [Compound 133, 8-((4-ethyloxazol-2-yl)methylthio)-1,3-dimethyl-7-(4-methylbenzyl)-1H-purine-2,6(3H,7H)-dione] | 100 to 500 nM
CCc1coc(CSc2nc3c(c(=O)n(C)c(=O)n3C)n2Cc2cccc(Cl)c2)n1 [Compound 134, 7-(3-chlorobenzyl)-8-((4-ethyloxazol-2-yl)methylthio)-1,3-dimethyl-1H-purine-2,6(3H,7H)-dione] | 100 to 500 nM
Cn1c(=O)c2c(nc(Oc3cccc(C(F)(F)F)c3)n2Cc2cccc(Cl)c2)n(C)c1=O [Compound 137, 7-(3-Chlorobenzyl)-1,3-dimethyl-8-(3-(trifluoromethyl)phenoxy)-1H-purine-2,6(3H,7H)-dione] | 100 to 500 nM
Cn1c(=O)c2c(nc(Oc3cccc(C(F)(F)F)c3)n2Cc2cccc(Br)c2)n(C)c1=O [Compound 138, 7-(3-Bromobenzyl)-1,3-dimethyl-8-(3-(trifluoromethyl)phenoxy)-1H-purine-2,6(3H,7H)-dione] | 100 to 500 nM
Cn1c(=O)c2c(nc(Oc3cccc(CO)c3)n2Cc2cccc(Cl)c2)n(C)c1=O [Compound 140] | 2000 to 10000 nM
Cn1c(=O)c2c(nc(Oc3cccc(C(F)(F)F)c3)n2Cc2ccc(Cl)nc2)n(C)c1=O [Compound 143, 7-((6-chloropyridin-3-yl)methyl)-1,3-dimethyl-8-(3-(trifluoromethyl)phenoxy)-1H-purine-2,6(3H,7H)-dione] | 2000 to 10000 nM
Cn1c(=O)c2c(nc(Oc3ccc(C(F)(F)F)cc3)n2Cc2ccc(Cl)cc2)n(C)c1=O [Compound 144] | 500 to 1000 nM
Cn1c(=O)c2c(nc(OCc3cccc(C(F)(F)F)c3)n2Cc2ccc(Cl)cc2)n(C)c1=O [Compound 145, 7-(4-chlorobenzyl)-1,3-dimethyl-8-(3-(trifluoromethyl)benzyloxy)-1H-purine-2,6(3H,7H)-dione] | < 100 nM
CCc1coc(CSc2nc3c(c(=O)n(C)c(=O)n3C)n2Cc2ccc(Cl)cc2)n1 [Compound 146, 7-(4-chlorobenzyl)-8-((4-ethyloxazol-2-yl)methylthio)-1,3-dimethyl-1H-purine-2,6(3H,7H)-dione] | < 100 nM
CCc1coc(CSc2nc3c(c(=O)n(C)c(=O)n3C)n2Cc2cccc(F)c2)n1 [Compound 147, 8-((4-ethyloxazol-2-yl)methylthio)-7-(3-fluorobenzyl)-1,3-dimethyl-1H-purine-2,6(3H,7H)-dione] | 100 to 500 nM
CCc1coc(CSc2nc3c(c(=O)n(C)c(=O)n3C)n2Cc2ccc(OC(F)(F)F)cc2)n1 [Compound 148, 8-((4-ethyloxazol-2-yl)methylthio)-1,3-dimethyl-7-(4-(trifluoromethoxy)benzyl)-1H-purine-2,6(3H,7H)-dione] | 100 to 500 nM

Now from value to compound:

IC50 | Structure (SMILES)
1000 to 2000 nM | CC(=O)c1cccc(Oc2nc3c(c(=O)n(C)c(=O)n3C)n2Cc2cccc(Br)c2)c1 [Compound 114, 8-(3-acetylphenoxy)-7-(3-bromobenzyl)-1,3-dimethyl-1H-purine-2,6(3H,7H)-dione]
2000 to 10000 nM | CC(Cc1nc2c(c(=O)n(C)c(=O)n2C)n1Cc1cccc(Br)c1)C(=O)O (stereo not drawn) [Compound 117, 3-(7-(3-Bromobenzyl)-1,3-dimethyl-2,6-dioxo-2,3,6,7-tetrahydro-1H-purin-8-yl)-2-methylpropanoic acid]
2000 to 10000 nM | CCCOCCc1nc2c(c(=O)n(C)c(=O)n2C)n1Cc1ccc(C#N)cc1 [Compound 118]
2000 to 10000 nM | CCCOCCc1nc2c(c(=O)n(C)c(=O)n2C)n1Cc1cccc(C#N)c1 [Compound 119]
2000 to 10000 nM | CCCC(=O)CCOc1nc2c(c(=O)n(C)c(=O)n2C)n1Cc1cccc(Br)c1 [Compound 120]
2000 to 10000 nM | CCCOCCc1nc2c(c(=O)n(C)c(=O)n2C)n1Cc1cccc(C(N)=O)c1 [Compound 121]
< 100 nM | CCCC(O)C(C)(C)Sc1nc2c(c(=O)n(C)c(=O)n2C)n1Cc1cccc(Br)c1 (stereo not drawn) [Compound 122, 7-(3-bromobenzyl)-8-(3-hydroxy-2-methylhexan-2-ylthio)-1,3-dimethyl-1H-purine-2,6(3H,7H)-dione]
1000 to 2000 nM | C=C(CC(=O)OCC)c1nc2c(c(=O)n(C)c(=O)n2C)n1Cc1cccc(Br)c1 [Compound 123, ethyl 3-(7-(3-bromobenzyl)-1,3-dimethyl-2,6-dioxo-2,3,6,7-tetrahydro-1H-purin-8-yl)but-3-enoate]
100 to 500 nM | CCCOCCc1nc2c(c(=O)n(C)c(=O)n2C)n1Cc1cccc(-c2ccccc2)c1 [Compound 128, 7-(biphenyl-3-ylmethyl)-1,3-dimethyl-8-(2-propoxyethyl)-1H-purine-2,6(3H,7H)-dione]
500 to 1000 nM | CCCOCCc1nc2c(c(=O)n(C)c(=O)n2C)n1Cc1ccc(-c2ccccc2)cc1 [Compound 129, 7-(biphenyl-4-ylmethyl)-1,3-dimethyl-8-(2-propoxyethyl)-1H-purine-2,6(3H,7H)-dione]
500 to 1000 nM | CCOC(=O)CCC(C)c1nc2c(c(=O)n(C)c(=O)n2C)n1Cc1cccc(Br)c1 (stereo not drawn) [Compound 135, Ethyl 4-(7-(3-bromobenzyl)-1,3-dimethyl-2,6-dioxo-2,3,6,7-tetrahydro-1H-purin-8-yl)pentanoate]
1000 to 2000 nM | CCOC(=O)C(C)CCc1nc2c(c(=O)n(C)c(=O)n2C)n1Cc1cccc(Br)c1 (stereo not drawn) [Compound 136, Ethyl 4-(7-(3-bromobenzyl)-1,3-dimethyl-2,6-dioxo-2,3,6,7-tetrahydro-1H-purin-8-yl)-2-methylbutanoate]
2000 to 10000 nM | CCCOCCc1nc2c(c(=O)n(C)c(=O)n2C)n1Cc1cccc(CO)c1 [Compound 141]
2000 to 10000 nM | CCCOCCc1nc2c(c(=O)n(C)c(=O)n2C)n1Cc1ccc(C(N)=O)cc1 [Compound 149]
< 100 nM | CCCC(=O)C(C)(C)Sc1nc2c(c(=O)n(C)c(=O)n2C)n1Cc1cccc(Br)c1 [Compound 150, 7-(3-bromobenzyl)-1,3-dimethyl-8-(2-methyl-3-oxohexan-2-ylthio)-1H-purine-2,6(3H,7H)-dione]
